Read-outs that look alike come from different tables or passages of the source. Values belong to the compound of their own block, whether it stands above or below them.
Key:
[1] = "in tubo" taurine formation in contact with H2O2 solution (HPLC); assay type: physicochemical; settings: 4 equivalents H2O2, pH 7.4, 37° C.
[2] = literature value (Cabelli 1983); cited from earlier work
V79 fibroblastic line [3] = experiment: Anti-clastogen effect: micronucleus cells under genotoxic 4-HNE stress; assay type: cell-based, hamster; settings: stress-HNE 1 ppm
From the text: The study has been carried out according to identical experimental conditions (sowing) to those presented in the here-above test 3, with cell exposure to a state of “4-HNE stress ” at […] genotoxic concentration, as described (Eckel P. M., Molecular Aspects of Medicine (2003), vol. 24, pp. 161-165) as generating cellular DNA breaks and micronucleus formation (clastogen effect).
The micronucleus cell number is counted following reading of the slides with epifluorescence microscope, on 2000 cells and after marking with orange acridine (DNA colorant).
Results, taking the middle values obtained from two independent experiments, are presented below in table 4, in comparison with those for N-acetyl-cysteine at 2 mM chosen as a positive reference molecule (number of micronucleus cells close to the non-exposed control).

V79 cells = experiment: Protection against "UVA-induced" stress: intracellular ROS by CMDCF probe; assay type: cell-based, hamster; settings: irradiated cells, UVA 5 J. cm−2
Procedure: The study has been carried out according to identical experimental conditions (sowing) to those presented in the here-above tests 3 and 4, but with an exposure of V79 cells to ultraviolet radiation (λ315-400 nm) with the moderate dose of 5 J. cm^−2 (“UVA-induced” stress).
The formation of intracellular ROS is measured with the permeant fluorescent probe “CMDCF” derived from fluorescein (10 μm, 15 minutes incubation).
The percentages of CMDCF cells said “positive” (cells with intracellular formation of ROS are presented below in table 6, in comparison with unirradiated cells, then with cells treated with N-acetyl-cysteine (reference molecule) and different concentrations of 2-oxo-1,3-thiazolidine compound.

[4] = "Global" antioxidant power: desoxyribose protection with oxidase/hypoxanthine xanthine pair; settings: pH 7.5
Procedure: The production system of ROS, described by Nowak D. and coll. […] This is characterized by the sum of the effects against the superoxide anion O2^o−, hydrogen peroxide H2O2, and the hydroxyl radical OH^o, and is expressed by following the percentage of protection of a “detecting” molecule, desoxyribose.
Experimentally, the tested substance is dissolved in a buffered medium at pH 7.5, supplemented with NaCl, MgCl2 et CaCl2. After their incubation at 37° C. in the presence of the oxidase/hypoxanthine xanthine pair, EDTA and desoxyribose, the reaction is stopped with the help of trichloroacetic acid. After addition of thiobarbituric acid, an optic density measure at 532 nm is carried out, expressed later as percentage of desoxyribose protection (following comparison with a control).

V79 fibroblastic line [5] = experiment: Neutralization of 4-hydroxynonenal cytotoxicity, MTT cellular viability; assay type: cell-based, hamster; settings: 4-HNE 6 ppm
Procedure: The experimental study has been carried out on a fibroblastic line of hamster called V79, maintained in humid atmosphere at 37° C. and 5% CO2, then seeded in 96 wells plates at the rate of 0.5.10^4 cells per well.
The cellular viability of fibroblasts is measured by the incorporation method to the bromide of 3-(4,5-dimethylthiazol-2-yl)-2,5-diphenyltetrazolium (or MTT). The results, taking the middle values obtained from three independent experiments, are presented below in table 3, in comparison with those for the N-acetyl-cysteine at 2 mM chosen as a positive reference molecule (total restoration of cellular viability in relation to a control and the non stressed cells with 4-HNE).

[6] = Scavenging speed constant of the hydroxyl radical, Ks (OH°); design: unit not given here; settings: pH 7,4, 37° C., one hour incubation; middle values of five experiments
Procedure: The method, described by Rehman A. and coll.
Experimentally, the tested substance is dissolved in a buffered medium of pH 7,4 to which is added a generating medium of OH^o. Following one hour of incubation at 37° C., the reaction is stopped with the help of trichloroacetic acid. […]

taurine (% formation) ([1]; 3 h): 30% | taurine (% formation) ([1]; 7 h): 50% | taurine (% formation) ([1]; 24 h): 77% | taurine (% formation) ([1]; 48 h): 89%
SMILES: S=C1NCCS1 [2-thiono-1,3-thiazolidine]

SMILES: O=C1O[C@H]([C@@H](O)CO)C(O)=C1O [ascorbic acid]
Ks (OH°) [2]: 10.1 Gigas.M-1.s-1

taurine (% formation) ([1]; 3 h): 38% | taurine (% formation) ([1]; 7 h): 56% | taurine (% formation) ([1]; 24 h): 82% | taurine (% formation) ([1]; 48 h): 93% | logP (physchem): -0.27
SMILES: O=C1NCCS1 [2-oxo-1,3-thiazolidine]
Cell number with micronucleus/2000 cells (V79 fibroblastic line [3]; compound 5 mM): 21 | % of CMDCF positive cells (V79 cells; compound 0.625 mM): 24.7% | % of CMDCF positive cells (V79 cells; compound 1.25 mM): 15.3% | % of CMDCF positive cells (V79 cells; compound 2.5 mM): 12% | % of CMDCF positive cells (V79 cells; compound 5 mM): 7.3% | % protection ([4]; compound 10 mM): 19% | % protection ([4]; compound 20 mM): 25% | viability at 100 µM (V79 fibroblastic line [5]; compound 0.1 mM): 40% | viability at 1000 µM (V79 fibroblastic line [5]; compound 1 mM): 58% | viability at 2500 µM (V79 fibroblastic line [5]; compound 2.5 mM): 100% | Ks (OH°) [6]: 13.52

SMILES: CC(=O)N[C@@H](CS)C(=O)O [N-acetyl-cysteine, reference compound]
Cell number with micronucleus/2000 cells (V79 fibroblastic line [3]; compound 2 mM): 27 | % of CMDCF positive cells (V79 cells; compound 5 mM): 4% | viability at 2000 µM (V79 fibroblastic line [5]; compound 2 mM): 126%

Reference: patent US8492417B2, “Topical use of thiazolidine derivatives against consequences of oxidative stress of skin” (Exsymol S.A.M., priority 2007, dated 2013)
